This passage reports IC50 results from patent US20230203029A1 (priority 2020, published 2023).

Holding throughout (assay type): cell-based
Test [1] addresses T1, Ba/F3 Pro B-cell line expressing TEL-human MERTK fusion domain (Homo sapiens, UniProt Q12866).
T1 sequence (Q12866 587-858 limits assumed): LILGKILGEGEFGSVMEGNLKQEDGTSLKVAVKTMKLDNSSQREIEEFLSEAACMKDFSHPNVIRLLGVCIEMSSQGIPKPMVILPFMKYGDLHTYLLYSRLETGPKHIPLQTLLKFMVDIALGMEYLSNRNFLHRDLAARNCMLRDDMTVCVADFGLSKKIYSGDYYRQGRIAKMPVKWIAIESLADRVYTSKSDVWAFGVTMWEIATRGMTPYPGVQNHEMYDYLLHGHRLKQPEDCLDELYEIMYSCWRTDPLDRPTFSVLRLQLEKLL
The essentials: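 Ba/F3 cells dependent on BCR-AXL or TEL-MERTK fusion kinase (IL3-free; IL3 only for control lines) treated with compound 48 h at 37 °C, 0.25% DMSO. Viability by CellTiter-Glo luminescence; IC50 for half-maximal inhibition of survival from 4-parameter variable-slope fit.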

For test [2], the target named is T2, Ba/F3 Pro B-cell line expressing TEL-human Tyro3 fusion domain (Homo sapiens, UniProt Q06418).
T2 sequence (Q06418 518-790 limits assumed): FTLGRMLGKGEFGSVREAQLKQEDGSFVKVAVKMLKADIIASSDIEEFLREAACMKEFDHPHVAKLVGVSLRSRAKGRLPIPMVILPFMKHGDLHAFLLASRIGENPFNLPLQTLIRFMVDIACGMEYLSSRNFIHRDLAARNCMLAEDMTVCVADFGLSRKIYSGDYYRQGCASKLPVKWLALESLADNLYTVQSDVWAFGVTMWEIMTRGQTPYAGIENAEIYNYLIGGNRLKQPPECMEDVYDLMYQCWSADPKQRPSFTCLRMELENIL
The settings on record: cell survival, 48 h, CellTiter-Glo. (In general: Cellular ATP, detected with luciferase, serves as a proxy for viable cell number.)

Test [3] deals with BCR-Ba/F3 control cell line. The test is described as follows: Assay 5 Ba/F3 cell survival assay, BCR-none control line. The settings on record: Mus musculus, BaF3. How it is done:
Assay 5—Ba/F3 Cell Survival Assays.
The inhibitory potencies of compounds were assessed in a Ba/F3 cell survival assay, using the Ba/F3 Pro B-cell line, recombinantly expressing a BCR-human AXL kinase domain fusion protein (pACD320/AXL, Advanced Cellular Dynamics Inc), TEL-human MERTK fusion domain (pACD1000/MERTK, Advanced Cellular Dynamics Inc), TEL-human Tyro3 fusion domain (pACD1000/TYRO3, Advanced Cellular Dynamics Inc), or control TEL-none (ACD320, Advanced Cellular Dynamics Inc) BRC-none constructs (ACD1000, Advanced Cellular Dynamics Inc). 10 ng/mL recombinant murine IL3 (R&D, 403-ML-010) was included in the media when propagating negative control TEL-none or BCR-none lines only. Cells were maintained in RMPI 1640 (Corning 15-040-CV) culture media containing 10% heat inactivated semi-synthetic FBS (RMBIO FGR-BBT), 2 mM L-Glutamine (Sigma, G7513), 100 IU/mL Penicillin-[…] Streptomycin (Sigma, P4333), and 500 ng/mL Puromycin (Sigma, P8833). Experiments were performed in 50 μl growth media, including the test compounds of interest, and dispensing 5000 cells/well in logarithmic-phase growth into a 384 well white Optiplate (Perkin Elmer 6007299). […] The final assay DMSO concentration was 0.25%. […]
The plate was then equilibrated for 5 min at room temperature and luminescence read on a BMG Pherastar FSX using the LUM plus optic module. […]

Where [4] appears, read: cell survival, 48 h, CellTiter-Glo; read-out: TEL-MERTK Ba/F3 IC50.

pIC50: −log10 of the molar value. Read-outs that look alike come from different tables or passages of the source.

In the case of `CN1CCC(NC(=O)c2cc3c(Nc4ccc(NC(=O)c5cccn(-c6ccccc6)c5=O)cc4)ccnc3cn2)CC1` [Example 3, N-(1-methyl-4-piperidyl)-4-[4-[(2-oxo-1-phenyl-pyridine-3-carbonyl)amino]anilino]-1,7-naphthyridine-6-carboxamide], the pIC50 in test [1] (setting [4]) was 6.50; in test [2], 6.02.
For the compound `O=C(Nc1ccc(Oc2ccnc3cnc(N4CCNCC4)cc23)cc1)c1cccn(-c2ccc(F)cc2)c1=O` [Example 12.2, 1-(4-fluorophenyl)-2-oxo-N-[4-[(6-piperazin-1-yl-1,7-naphthyridin-4-yl)oxy]phenyl]pyridine-3-carboxamide], the pIC50 in test [1] (setting [4]) was 7.25; in test [2], 6.62.
The like results for `CC(C)n1cc(C(=O)Nc2ccc(Oc3ccnc4cnc(N5CCNCC5)cc34)cc2)c(=O)n(-c2ccccn2)c1=O` [Example 12.3, 1-isopropyl-2,4-dioxo-N-[4-[(6-piperazin-1-yl-1,7-naphthyridin-4-yl)oxy]phenyl]-3-(2-pyridyl)pyrimidine-5-carboxamide] were, in that order, 6.37 and 5.88.
Consider `CC(C)n1cc(C(=O)Nc2ccc(Oc3ccnc4cnc(N5CCNCC5)cc34)cc2)c(=O)n(-c2ccc(F)cn2)c1=O` [Example 12.4, 3-(5-fluoro-2-pyridyl)-1-isopropyl-2,4-dioxo-N-[4-[(6-piperazin-1-yl-1,7-naphthyridin-4-yl)oxy]phenyl]pyrimidine-5-carboxamide], for which the pIC50 in test [1] (setting [4]) is 7.00; in test [2] it was 6.50.
Consider `CC(C)n1cc(C(=O)Nc2ccc(Oc3ccnc4cnc(N5CCNCC5)cc34)cc2)c(=O)c(-c2ccc(F)cc2)c1` [Example 13, 5-(4-Fluorophenyl)-1-isopropyl-4-oxo-N-[4-[(6-piperazin-1-yl-1,7-naphthyridin-4-yl)oxy]phenyl]pyridine-3-carboxamide], for which the pIC50 was 7.51 in test [1] (setting [4]) and 6.67 in test [2].
As for `Cn1cc(C(=O)Nc2ccc(Oc3ccnc4cnc(N5CCNCC5)cc34)cc2)c(=O)c(-c2ccc(F)cc2)c1` [Example 13.1, 5-(4-fluorophenyl)-1-methyl-4-oxo-N-[4-[(6-piperazin-1-yl-1,7-naphthyridin-4-yl)oxy]phenyl]pyridine-3-carboxamide], the results for the pIC50 in test [1] (setting [4]) and in test [2] were 7.30 and 6.75, respectively.
The like results for `C[C@H](CO)n1cc(C(=O)Nc2ccc(Oc3ccnc4cnc(C(=O)NC5CCN(C)CC5)cc34)cc2)c(=O)n(-c2ccc(F)cc2)c1=O` [Example 14, 4-[4-[[3-(4-Fluorophenyl)-2,4-dioxo-1-[(1R)-2-hydroxy-1-methyl-ethyl]pyrimidine-5-carbonyl]amino]phenoxy]-N-(1-methyl-4-piperidyl)-1,7-naphthyridine-6-carboxamide] were, in that order, 7.10 and 6.23.
The like results for `CN1CCC(NC(=O)c2cc3c(Oc4ccc(NC(=O)c5cn(C6CC6)c(=O)n(-c6ccc(F)cc6)c5=O)cc4)ccnc3cn2)CC1` [Example 15, 4-[4-[[1-Cyclopropyl-3-(4-fluorophenyl)-2,4-dioxo-pyrimidine-5-carbonyl]amino]phenoxy]-N-(1-methyl-4-piperidyl)-1,7-naphthyridine-6-carboxamide] were, in that order, 6.80 and 6.17.
`O=C(Nc1ccc(Oc2ccnc3cnc(N4CCN(C5COC5)CC4)cc23)cn1)c1ccnn(-c2ccc(F)cc2)c1=O` [Example 20, 2-(4-fluorophenyl)-N-[5-[[6-[4-(oxetan-3-yl)piperazin-1-yl]-1,7-naphthyridin-4-yl]oxy]-2-pyridyl]-3-oxo-pyridazine-4-carboxamide]: the pIC50 in test [1] (setting [4]) is 7.70; in test [3], 6.08; in test [2], 6.57.
As to `CC(C)n1cc(C(=O)Nc2ccc(Oc3ccnc4cnc(C(=O)NC5CCN(C)CC5)cc34)cn2)c(=O)n(-c2ccc(F)cc2)c1=O` [Example 27.5, 4-[[6-[[3-(4-fluorophenyl)-1-isopropyl-2,4-dioxo-pyrimidine-5-carbonyl]amino]-3-pyridyl]oxy]-N-(1-methyl-4-piperidyl)-1,7-naphthyridine-6-carboxamide], the pIC50 is 8.05 in test [1] (setting [4]) and 6.97 in test [2].
As for `Cc1cc(NC(=O)c2cccn(-c3ccccc3)c2=O)ccc1Oc1ccnc2cnc(N3CCNCC3)cc12` [Example 30, N-[3-methyl-4-[(6-piperazin-1-yl-1,7-naphthyridin-4-yl)oxy]phenyl]-2-oxo-1-phenyl-pyridine-3-carboxamide], the pIC50 was 6.33 in test [1] (read-out: TEL-MERTK Ba/F3 IC50; cell survival, 48 h, CellTiter-Glo) and 5.88 in test [2].
`CN1CCC(NC(=O)c2cc3c(Oc4ccc(NC(=O)c5cccn(-c6ccccc6)c5=O)cc4F)ccnc3cn2)CC1` [Example 33, 4-[2-fluoro-4-[(2-oxo-1-phenyl-pyridine-3-carbonyl)amino]phenoxy]-N-(1-methyl-4-piperidyl)-1,7-naphthyridine-6-carboxamide]: the pIC50 in test [1] (setting [4]) is 7.24; in test [2], 6.81.
With `O=C(Nc1ccc(Oc2ccnc3cnc(N4CCNCC4)cc23)cc1)c1cn(C2CC2)c(=O)n(-c2ccc(F)cc2)c1=O` [Example 36, 1-cyclopropyl-3-(4-fluorophenyl)-2,4-dioxo-N-[4-[(6-piperazin-1-yl-1,7-naphthyridin-4-yl)oxy]phenyl]pyrimidine-5-carboxamide], the pIC50 in test [1] (setting [4]) is 6.80; in test [2] it was 6.06.
In the case of `CN1CCC(NC(=O)c2cc3c(Oc4ccc(NC(=O)c5cn(C)cc(-c6ccc(F)cc6)c5=O)cc4)ccnc3cn2)CC1` [Example 37, 4-[4-[[5-(4-fluorophenyl)-1-methyl-4-oxo-pyridine-3-carbonyl]amino]phenoxy]-N-(1-methyl-4-piperidyl)-1,7-naphthyridine-6-carboxamide], the pIC50 was 7.30 in test [1] (setting [4]) and 6.60 in test [2].
For the compound `CC(C)n1cc(C(=O)Nc2ccc(Oc3ccnc4cnc(C(=O)NC5CCN(C)CC5)cc34)cc2)c(=O)c(-c2ccc(F)cc2)c1` [Example 37.1, 4-[4-[[5-(4-fluorophenyl)-1-isopropyl-4-oxo-pyridine-3-carbonyl]amino]phenoxy]-N-(1-methyl-4-piperidyl)-1,7-naphthyridine-6-carboxamide], the pIC50 in test [1] (setting [4]) is 8.10; in test [2] it was 7.37.
